Measurements reported in PubChem BioAssay AID2060500 (Molecular Pharmacology Branch, DTP, NCI, 2025).
pIC50: −log10 of the molar value.

System: 596521-263-R-J1-PDC complex spheroids, viability % of control
Experiment: Anticancer human tumor 596521-263-R-J1-PDC patient-derived soft tissue sarcoma cell line growth inhibition [GQUAD]
Settings: for pIC50: curve of first compound; for viability, T/C: stronger effect = lower value
From the text: DNA G-quadruplex Stabilizer Agents in Combinations in Complex Spheroids
A high-throughput screen of multi-cell type tumor spheroids was designed to identify active combinations of DNA G-quadruplex stabilizer agents and targeted small molecules. Complex spheroids include a stromal component modeled by human endothelial cells (HUVEC) and fibroblasts modeled by human mesenchymal stem cells (MSCs). The concentration ranges selected for each drug and investigational agent were based upon clinically achievable concentrations if the clinical Cmax of the agent was known.
Compounds. The drugs and investigational agents: pidnarulex (CX-5461; NSC782164), APTO-253 (NSC789042), BRACO-19 (NSC847499), peposertib (NSC802822), ceralasertib (NSC780249), elimusertib (NSC800525), camonsertib (NSC841442), AZD-1390 (NSC803789), olaparib (NSC753686), talazoparib (NSC767125), ART-558 (NSC835418), sotorasib (NSC818433), MRTX-1133 (NSC836407), SN-38 (NSC673596), topotecan (NSC609699), etoposide (NSC141540), doxorubicin (NSC123127), gemcitabine (NSC613327), 5-fluorouracil (NSC19893), paclitaxel (NSC125973), vemurafenib (NSC761431), panobinostat (NSC761190), R-306465 (JNJ-16241199; NSC773264), adavosertib (NSC754352), TP-3654 (NSC805149), carboplatin (NSC241240), KSQ-4279 (NSC840948), and staurosporine (NSC755774) were obtained from the National Cancer Institute (NCI) Developmental Therapeutics Program Chemical Repository (34). The FDA-approved anticancer drug set is available from the NCI Developmental Therapeutics Program. […] The stock solutions were prepared in dimethyl sulfoxide (DMSO, Sigma-Aldrich, St. Louis, MO, cat. D2650) at 800-fold the tested concentration and stored at -70 degrees C prior to their use. All drugs and investigational agents were tested over a range starting from a high concentration at or near the clinical Cmax and decreasing in half-log increments. If the clinical Cmax for an agent had not been determined, the highest concentration tested was 10 microM.
2.3 Cell Culture. All cells were maintained in an incubator at 37 degrees C and 5% CO2 with 95% humidity. The PDC lines were cultured according to standard operating procedures established by the NCI PDMR. All PDCs were thawed and cultured in Matrigel-coated flasks prepared with a working solution of 1X Ham's F-12 nutrient mix, without supplementation (Invitrogen, cat. 11765054), 100 U/mL penicillin-streptomycin (Invitrogen, cat. 15140122), and 2.5% Matrigel (Corning Inc., cat. 354248) for the first three passages. The 857933-349-R-J2-PDC line was cultured in 6C/Colon 1B media, which includes advanced DMEM/F-12 (Thermo Fisher Scientific, cat. 12634028), 10 mM HEPES (Thermo Fisher Scientific, cat. 15630080), 1X GlutaMAX supplement (Thermo Fisher Scientific, cat. 35050061), 0.1 mg/mL primocin (InvivoGen, cat. ant-pm-2), 10% defined fetal bovine serum, heat inactivated (HyClone Laboratories Inc., cat. SH30070.03HI), 50% L-WRN conditioned media (ATCC, cat. CRL-3276), 1.25 mM N-Acetyl-L-cysteine (Sigma-Aldrich, cat. A9165), 10 mM nicotinamide (Sigma-Aldrich, cat. N0636), 1X B-27 supplement (Thermo Fisher Scientific, cat. 17504044), 1X N-2 supplement (Thermo Fisher Scientific, cat. 17502048), 10 microM Y-27632 dihydrochloride (Tocris Bioscience, cat. 1254), and 50 ng/mL human EGF recombinant protein (Thermo Fisher Scientific, cat. PHG0311). The 485176-168-R4-J1-PDC line was cultured in Panc media, which includes all 6C/Colon 1B media components plus 100 ng/mL human FGF-10 (Thermo Fisher Scientific, cat. 100-26), 500 nM SB-431542 (Selleckchem, cat. S1067), and gastrin (Tocris, cat. 3006).
[…]

[1] = second compound 0.0316 µM, first compound 0.0316 µM
[2] = second compound 0.0316 µM, first compound 0.1 µM
[3] = second compound 0.0316 µM, first compound 0.316 µM
[4] = second compound 0.0316 µM, first compound 1 µM
[5] = second compound 0.0316 µM, first compound 3.16 µM
[6] = second compound 0.0316 µM, first compound 10 µM
[7] = second compound 0.1 µM, first compound 0.0316 µM
[8] = second compound 0.1 µM, first compound 0.1 µM
[9] = second compound 0.1 µM, first compound 0.316 µM
[10] = second compound 0.1 µM, first compound 1 µM
[11] = second compound 0.1 µM, first compound 3.16 µM
[12] = second compound 0.1 µM, first compound 10 µM
[13] = second compound 0.316 µM, first compound 0.0316 µM
[14] = second compound 0.316 µM, first compound 0.1 µM
[15] = second compound 0.316 µM, first compound 0.316 µM
[16] = second compound 0.316 µM, first compound 1 µM
[17] = second compound 0.316 µM, first compound 3.16 µM
[18] = second compound 0.316 µM, first compound 10 µM
[19] = second compound 1 µM, first compound 0.0316 µM
[20] = second compound 1 µM, first compound 0.1 µM
[21] = second compound 1 µM, first compound 0.316 µM
[22] = second compound 1 µM, first compound 1 µM
[23] = second compound 1 µM, first compound 3.16 µM
[24] = second compound 1 µM, first compound 10 µM
[25] = second compound 3.16 µM, first compound 0.0316 µM
[26] = second compound 3.16 µM, first compound 0.1 µM
[27] = second compound 3.16 µM, first compound 0.316 µM
[28] = second compound 3.16 µM, first compound 1 µM
[29] = second compound 3.16 µM, first compound 3.16 µM
[30] = second compound 3.16 µM, first compound 10 µM
[31] = second compound 10 µM, first compound 0.0316 µM
[32] = second compound 10 µM, first compound 0.1 µM
[33] = second compound 10 µM, first compound 0.316 µM
[34] = second compound 10 µM, first compound 1 µM
[35] = second compound 10 µM, first compound 3.16 µM
[36] = second compound 10 µM, first compound 10 µM
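Further: spheroids exposed to drugs for 7 days before viability reading.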

## CC(=O)O[C@H]1C(=O)[C@@]2(C)[C@H]([C@H](OC(=O)c3ccccc3)[C@]3(O)C[C@H](OC(=O)[C@H](O)[C@@H](NC(=O)c4ccccc4)c4ccccc4)C(C)=C1C3(C)C)[C@]1(OC(C)=O)CO[C@@H]1C[C@@H]2O + CN(C)c1ccc(Nc2c3ccc(NC(=O)CCN4CCCC4)cc3nc3cc(NC(=O)CCN4CCCC4)ccc23)cc1
Second compound 0.0316 µM
  pIC50: > 7.50
Second compound 0.1 µM
  pIC50: > 7.50
Second compound 0.316 µM
  pIC50: > 7.50
Second compound 1 µM
  pIC50: > 7.50
Second compound 3.16 µM
  pIC50: > 7.50
Second compound 10 µM
  pIC50: > 7.50
[1]
  viability, T/C: 40.7%
[2]
  viability, T/C: 27.7%
[3]
  viability, T/C: 25.7%
[4]
  viability, T/C: 22.9%
[5]
  viability, T/C: 26.8%
[6]
  viability, T/C: 31.9%
[7]
  viability, T/C: 37.5%
[8]
  viability, T/C: 25.6%
[9]
  viability, T/C: 24.3%
[10]
  viability, T/C: 28%
[11]
  viability, T/C: 23.1%
[12]
  viability, T/C: 26.6%
[13]
  viability, T/C: 37.2%
[14]
  viability, T/C: 27.4%
[15]
  viability, T/C: 25.2%
[16]
  viability, T/C: 29.2%
[17]
  viability, T/C: 29.3%
[18]
  viability, T/C: 25.3%
[19]
  viability, T/C: 38.3%
[20]
  viability, T/C: 29%
[21]
  viability, T/C: 26.5%
[22]
  viability, T/C: 25.2%
[23]
  viability, T/C: 28.3%
[24]
  viability, T/C: 27.5%
[25]
  viability, T/C: 35.6%
[26]
  viability, T/C: 32.1%
[27]
  viability, T/C: 26.9%
[28]
  viability, T/C: 27.1%
[29]
  viability, T/C: 27.3%
[30]
  viability, T/C: 28.2%
[31]
  viability, T/C: 34.3%
[32]
  viability, T/C: 21.7%
[33]
  viability, T/C: 21.4%
[34]
  viability, T/C: 21.5%
[35]
  viability, T/C: 21.6%
[36]
  viability, T/C: 24.9%

## C=CC(=O)N1CCN(c2nc(=O)n(-c3c(C)ccnc3C(C)C)c3nc(-c4c(O)cccc4F)c(F)cc23)C(C)C1 (stereo unspecified) + Cc1[nH]c2ccc(F)cc2c1-c1nc2c3cccnc3c3ncccc3c2[nH]1
Second compound 0.0316 µM
  pIC50: < 5.00
Second compound 0.1 µM
  pIC50: < 5.00
Second compound 0.316 µM
  pIC50: < 5.00
Second compound 1 µM
  pIC50: < 5.00
Second compound 3.16 µM
  pIC50: < 5.00
Second compound 10 µM
  pIC50: < 5.00
[1]
  viability, T/C: 91.6%
[2]
  viability, T/C: 102%
[3]
  viability, T/C: 98%
[4]
  viability, T/C: 100%
[5]
  viability, T/C: 103%
[6]
  viability, T/C: 69.3%
[7]
  viability, T/C: 97%
[8]
  viability, T/C: 97.1%
[9]
  viability, T/C: 95.2%
[10]
  viability, T/C: 107%
[11]
  viability, T/C: 90.8%
[12]
  viability, T/C: 67.8%
[13]
  viability, T/C: 91.5%
[14]
  viability, T/C: 108%
[15]
  viability, T/C: 89.5%
[16]
  viability, T/C: 99.7%
[17]
  viability, T/C: 89.8%
[18]
  viability, T/C: 67%
[19]
  viability, T/C: 95.6%
[20]
  viability, T/C: 82.5%
[21]
  viability, T/C: 99.8%
[22]
  viability, T/C: 97.5%
[23]
  viability, T/C: 90.8%
[24]
  viability, T/C: 75.8%
[25]
  viability, T/C: 90.7%
[26]
  viability, T/C: 88.2%
[27]
  viability, T/C: 91.9%
[28]
  viability, T/C: 95.1%
[29]
  viability, T/C: 90.8%
[30]
  viability, T/C: 73.3%
[31]
  viability, T/C: 71%
[32]
  viability, T/C: 72%
[33]
  viability, T/C: 83.1%
[34]
  viability, T/C: 72.1%
[35]
  viability, T/C: 85.3%
[36]
  viability, T/C: 56.4%

## COc1ccc([C@@H](O)c2cc(-c3ncnc4cc(N5CCOCC5)ccc34)c(F)cc2Cl)nn1 + Cc1[nH]c2ccc(F)cc2c1-c1nc2c3cccnc3c3ncccc3c2[nH]1
Second compound 0.0316 µM
  pIC50: < 5.00
Second compound 0.1 µM
  pIC50: < 5.00
Second compound 0.316 µM
  pIC50: < 5.00
Second compound 1 µM
  pIC50: < 5.00
Second compound 3.16 µM
  pIC50: < 5.00
Second compound 10 µM
  pIC50: 5.21
[1]
  viability, T/C: 96.5%
[2]
  viability, T/C: 89%
[3]
  viability, T/C: 94.6%
[4]
  viability, T/C: 77.9%
[5]
  viability, T/C: 69.3%
[6]
  viability, T/C: 52%
[7]
  viability, T/C: 98.6%
[8]
  viability, T/C: 89.1%
[9]
  viability, T/C: 97.7%
[10]
  viability, T/C: 77.5%
[11]
  viability, T/C: 64.7%
[12]
  viability, T/C: 55.4%
[13]
  viability, T/C: 94.2%
[14]
  viability, T/C: 105%
[15]
  viability, T/C: 95.9%
[16]
  viability, T/C: 89.6%
[17]
  viability, T/C: 72.2%
[18]
  viability, T/C: 56.5%
[19]
  viability, T/C: 94.7%
[20]
  viability, T/C: 93.8%
[21]
  viability, T/C: 95.8%
[22]
  viability, T/C: 81.2%
[23]
  viability, T/C: 69.1%
[24]
  viability, T/C: 50.3%
[25]
  viability, T/C: 89.1%
[26]
  viability, T/C: 90.9%
[27]
  viability, T/C: 83%
[28]
  viability, T/C: 71.3%
[29]
  viability, T/C: 64.5%
[30]
  viability, T/C: 50.3%
[31]
  viability, T/C: 92.2%
[32]
  viability, T/C: 87.7%
[33]
  viability, T/C: 82%
[34]
  viability, T/C: 68.8%
[35]
  viability, T/C: 61.7%
[36]
  viability, T/C: 42.4%
